# Measured values taken from patent US6943183B2 (Pfizer Inc, priority 2000, dated 2005).
# Biological target: T1, SF9 affinity purified rat FPT (Rattus norvegicus, UniProt Q02293+Q04631)
# T1 construct: made in house; host or cells: Sf9 insect cells
# Test: PFT (FPT) inhibitory activity assay, radiolabeled farnesyl pyrophosphate and biotinyl peptide, streptavidin beads
# Type: biochemical
# Details: HEPES buffer pH 7.4, 30° C., 30 minutes; read-out: FTase IC50
# Procedure, shortened: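 Rat FPT expressed in SF9 cells was incubated 30 minutes at 30° C. with compound (in 10% DMSO), radiolabeled farnesyl pyrophosphate and biotinylated peptide. Buffer: HEPES pH 7.4, ZnCl2 20 μM, MgCl2 and DTT 5 mM each, 0.1% PEG 8000, 5 mM potassium phosphate (also run without phosphate). Product captured on streptavidin beads in magnesium acetate/H3PO4 stop buffer.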
row,IC50 [nM],SMILES
1,0.2,"CC[C@H](CO)NC(=O)c1cccc(S(=O)(=O)Cc2c(O[C@H](Cn3ccnc3)c3ccccc3)ccc3c2CCCC3=O)c1 [Compound 242, N-[(1R)-1-(Hydroxymethyl)propyl]-3-{[(2-{[(1S)-2-(1H-imidazol-1-yl)-1-phenylethyl]oxy}-5-oxo-5,6,7,8-tetrahydro-1-naphthalenyl)methyl]sulfonyl}benzamide]"
2,0.17,"O=C1CCCc2c1ccc(O[C@H](Cn1ccnc1)c1cccnc1)c2NC(=O)c1nccc2ccccc12 [Compound 63d, Isoquinoline-1-carboxylic acid [2-((S)-2-imidazol-1-yl-1-pyridin-3-yl-ethoxy)-5-oxo-5,6,7,8-tetrahydro-naphthalen-1-yl]-amide]"
3,13,"COC(=O)c1ccc(CCc2c(O[C@H](Cn3ccnc3)c3ccccc3)ccc3c2CCCC3=O)cc1 [Compound 28, Methyl 4-{2-[2-((1S)-2-imidazolyl-1-phenylethoxy)-5-oxo-6,7,8-trihydronaphthyl]ethyl}benzoate]"
4,9,Cc1ccc(OCc2c(O[C@H](Cn3ccnc3)c3ccccc3)ccc3c2CCCC3=O)cn1 [Compound 82]
5,5,"O=C1CCCc2c1ccc(O[C@H](Cn1ccnc1)c1ccccc1)c2COc1cccc2ccccc12 [Compound 104, 6-((1S)-2-Imidazolyl-1-phenylethoxy)-5-(naphenyloxymethyl)-2,3,4-trihydronaphthalen-1-one]"
6,34,"O=C1CCCc2c1ccc(O[C@H](Cn1ccnc1)c1ccccc1)c2CN1CCN(c2ccccc2)CC1 [Compound 146, 6-((S)-2-Imidazol-1-yl-1-phenyl-ethoxy)-5-(4-phenyl-piperazin-1-ylmethyl)-3,4-dihydro-2H-napthalen-1-one]"
7,2,"COC(=O)c1ccc(N(C)Cc2c(O[C@H](Cn3ccnc3)c3ccccc3)ccc3c2CCCC3=O)cc1 [Compound 13, Methyl 4-({[2-((1S)-2-imidazolyl-1-phenylethoxy)-5-oxo(6,7,8-trihydronaphthyl)]methyl}methylamino)benzoate]"
8,1,"O=C1CCCc2c1ccc(O[C@H](Cn1ccnc1)c1ccccc1)c2COc1cccc2[nH]ccc12 [Compound 76, 6-((1S)-2-Imidazolyl-1-phenylethoxy)-5-(indol-4-yloxymethyl)-2,3,4-trihydronaphthalen-1-one]"
9,0.65,"C[C@@H](O)CNC(=O)c1cccc(S(=O)(=O)Cc2c(O[C@H](Cn3ccnc3)c3ccccc3)ccc3c2CCCC3=O)c1 [Compound 204, N-[(2R)-2-Hydroxypropyl]-3-{[(2-{[(1S)-2-(1H-imidazol-1-yl)-1-phenylethyl]oxy}-5-oxo-5,6,7,8-tetrahydro-1-naphthalenyl)methyl]sulfonyl}benzamide]"
10,15,"O=C(NC(CO)CO)c1ccc(S(=O)(=O)Cc2c(O[C@H](Cn3ccnc3)c3ccccc3)ccc3c2CCCC3=O)cc1 [Compound 235, N-[2-Hydroxy-1-(hydroxymethyl)ethyl]-4-{[(2-{[(1S)-2-(1H-imidazol-1-yl)-1-phenylethyl]oxy}-5-oxo-5,6,7,8-tetrahydro-1-naphthalenyl)methyl]sulfonyl}benzamide]"
11,8,"C=C(C)Cc1c(OC(Cn2ccnc2)c2ccccc2)ccc2c1CCCC2=O (racemic) [Compound 52, (±)-6-(2-Imidazolyl-1-phenylethoxy)-5-(2-methylprop-2-enyl)-2,3,4-trihydronaphthalen-1-one]"
12,38,"O=C(Cc1ccccn1)Nc1c(O[C@H](Cn2ccnc2)c2ccccc2)ccc2c1CCCC2=O [Compound 39a, N-[2-((S)-2-Imidazol-1-yl-1-phenyl-ethoxy)-5-oxo-5,6,7,8-tetrahydro-naphthalen-1-yl]-2-pyridin-2-yl-acetamide]"
13,0.4,COc1ccc(OCc2c(O[C@H](Cn3ccnc3)c3ccccc3)ccc3c2CCCC3=O)cc1 [Compound 65]
14,1.5,"O=C1CCCc2c1ccc(O[C@H](Cn1ccnc1)c1ccccc1)c2CNS(=O)(=O)c1ccccc1 [Compound 42, N-[2-((S)-2-Imidazol-1-y-1-phenyl-71-ethoxy)-5-oxo-5,6,7,8-tetrahydro-naphthalen-1-ylmethyl]-benzenesulfonamide]"
15,5,CC(C)c1ccc(OCc2c(O[C@H](Cn3ccnc3)c3ccccc3)ccc3c2CCCC3=O)cc1 [Compound 72]
16,0.2,"C[C@@H](O)CNC(=O)c1ccccc1S(=O)(=O)Cc1c(O[C@H](Cn2ccnc2)c2ccccc2)ccc2c1CCCC2=O [Compound 202, N-[(2R)-2-Hydroxypropyl]-2-{[(2-{[(1S)-2-(1H-imidazol-1-yl)-1-phenylethyl]oxy}-5-oxo-5,6,7,8-tetrahydro-1-naphthalenyl)methyl]sulfonyl}benzamide]"
17,3.5,COC(=O)c1ccccc1S(=O)(=O)NCc1c(O[C@H](Cn2ccnc2)c2ccccc2)ccc2c1CCCC2=O [Compound 42c]

row,IC50 [nM],SMILES
1,0.2,"O=C(NCc1ccco1)c1ccccc1S(=O)(=O)Cc1c(O[C@H](Cn2ccnc2)c2ccccc2)ccc2c1CCCC2=O [Compound 231, N-(2-Furylmethyl)-2-{[(2-{[(1S)-2-(1H-imidazol-1-yl)-1-phenylethyl]oxy}-5-oxo-5,6,7,8-tetrahydro-1-naphthalenyl)methyl]sulfonyl}benzamide]"
2,26,"O=C1CCCc2c1ccc(O[C@H](Cn1ccnc1)c1ccccc1)c2-c1cccc(Cl)c1 [Compound 22, 6-((1S)-2-Imidazolyl-1-phenylethoxy)-5-(3-chlorophenyl)-2,3,4-trihydronaphthalen-1-one]"
3,0.2,"O=C(NC1CCCC1)c1cccc(S(=O)(=O)Cc2c(O[C@H](Cn3ccnc3)c3ccccc3)ccc3c2CCCC3=O)c1 [Compound 218, N-Cyclopentyl-3-{[(2-{[(1S)-2-(1H-imidazol-1-yl)-1-phenylethyl]oxy}-5-oxo-5,6,7,8-tetrahydro-1-naphthalenyl)methyl]sulfonyl}benzamide]"
4,12,"O=C1CCCc2c1ccc(O[C@H](Cn1ccnc1)c1ccccc1)c2COc1ccccc1 [Compound 66, 6-((1S)-2-Imidazolyl-1-phenylethoxy)-5-(phenoxymethyl)-2,3,4-trihydronaphthalen-1-one]"
5,0.24,"C[C@H](O)CNC(=O)c1cccc(S(=O)(=O)Cc2c(O[C@H](Cn3ccnc3)c3ccccc3)ccc3c2CCCC3=O)c1 [Compound 200, N-[(2S)-2-Hydroxypropyl]-3-{[(2-{[(1S)-2-(1H-imidazol-1-yl)-1-phenylethyl]oxy}-5-oxo-5,6,7,8-tetrahydro-1-naphthalenyl)methyl]sulfonyl}benzamide]"
6,0.1,CNC(=O)c1ccc(CCc2c(O[C@H](Cn3ccnc3)c3ccccc3)ccc3c2CCCC3=O)cc1 [Compound 29]
7,2,"O=C1CCCc2c1ccc(O[C@H](Cn1ccnc1)c1ccccc1)c2CCc1ccncc1 [Compound 26, 6-((1S)-2-Imidazolyl-1-phenylethoxy)-5-(2-(4-pyridyl)ethyl)-2,3,4-trihydronaphthalen-1-one]"
8,0.2,"O=C(NC1CCCC1)c1ccc(S(=O)(=O)Cc2c(O[C@H](Cn3ccnc3)c3ccccc3)ccc3c2CCCC3=O)cc1 [Compound 217, N-Cyclopentyl-4-{[(2-{[(1S)-2-(1H-imidazol-1-yl)-1-phenylethyl]oxy}-5-oxo-5,6,7,8-tetrahydro-1-naphthalenyl)methyl]sulfonyl}benzamide]"
9,0.2,"O=C(NC(CO)CO)c1cccc(S(=O)(=O)Cc2c(O[C@H](Cn3ccnc3)c3ccccc3)ccc3c2CCCC3=O)c1 [Compound 236, N-[2-Hydroxy-1-(hydroxymethyl)ethyl]-3-{[(2-{[(1S)-2-(1H-imidazol-1-yl)-1-phenylethyl]oxy}-5-oxo-5,6,7,8-tetrahydro-1-naphthalenyl)methyl]sulfonyl}benzamide]"
10,0.3,"O=C1CCCc2c1ccc(O[C@H](Cn1ccnc1)c1ccccc1)c2CSc1ccccc1 [Compound 1, 6-((1S)-2-Imidazolyl-1-phenylethoxy)-5-(phenylthiomethyl)-2,3,4-trihydronaphthalen-1-one]"
11,0.2,"O=C1CCCc2c1ccc(O[C@H](Cn1ccnc1)c1ccccc1)c2CCc1ccc(F)cc1 [Compound 30, 6-((1S)-2-Imidazolyl-1-phenylethoxy)-5-[2-(4-fluorophenyl)ethyl]-2,3,4-trihydronaphthalen-1-one]"
12,5.5,"O=C1CCCc2c1ccc(O[C@H](Cn1ccnc1CO)c1ccccc1)c2CS(=O)(=O)c1ccccc1 [Compound 10d, (S)-6{2-[2-(Hydroxymethyl)-1H-imidazol-1-yl]-1-phenylethoxy}-5-[(phenylsulfonyl)methyl]-3,4-dihydro-1(2H)-naphthalenone]"
13,1.5,"O=C1CCCc2c1ccc(O[C@H](Cn1ccnc1)c1ccccc1)c2CNS(=O)(=O)c1cccc(Cl)c1 [Compound 42e, 3-Chloro-N-[2-((S)-2-imidazol-1-yl-1-phenyl-ethoxy)-5-oxo-5,6,7,8-tetrahydro-naphthalen-1-ylmethyl]-benzenesulfonamide; compound with trifluoro-acetic acid]"
14,5.3,"O=C1CCCc2c1ccc(O[C@H](Cn1ccnc1)c1ccccc1)c2CNc1cccc2cccnc12 [Compound 148, 6-((S)-2-Imidazol-1-yl-1-phenyl-ethoxy)-5-(quinolin-8-ylaminomethyl)-3,4-dihydro-2H-napthalen-1-one]"
15,0.4,"C[C@H](O)CNC(=O)c1ccc(S(=O)(=O)Cc2c(O[C@H](Cn3ccnc3)c3ccccc3)ccc3c2CCCC3=O)cc1 [Compound 199, N-[(2S)-2-Hydroxypropyl]-4-{[(2-{[(1S)-2-(1H-imidazol-1-yl)-1-phenylethyl]oxy}-5-oxo-5,6,7,8-tetrahydro-1-naphthalenyl)methyl]sulfonyl}benzamide]"
16,0.24,"O=C(NC1CC1)c1ccc(S(=O)(=O)Cc2c(O[C@H](Cn3ccnc3)c3ccccc3)ccc3c2CCCC3=O)cc1 [Compound 223, N-Cyclopropyl-4-{[(2-{[(1S)-2-(1H-imidazol-1-yl)-1-phenylethyl]oxy}-5-oxo-5,6,7,8-tetrahydro-1-naphthalenyl)methyl]sulfonyl}benzamide]"
